Measurements as given in patent US11583512B2, “Composition for relieving itch or irritation of skin, comprising thymol trimethoxycinnamate” (Amorepacific Corporation, priority 2020, dated 2023).
pIC50: −log10 of the molar value.

Biological target: T1, voltage-gated sodium channel Nav1.7 (Homo sapiens, UniProt Q15858)
T1 construct: host or cells: HEK293
Experiment: Nav1.7 inhibition, membrane potential fluorescence dye assay with veratridine stimulation in Human Nav1.7-HEK293 cells
Type: cell-based
Details: 30 μM veratridine as stimulant
Experimental: Human Nav1.7-HEK293 cells are HEK293 (human embryonic kidney 293) cells stabilized by transforming the human Nav1.7 gene. One day before experiment, the Human Nav1.7-HEK293 cells were dispensed onto a 96-well plate with 8×10^4 cells/well and cultured in a 5% CO2 incubator at 37° C. for 24 hours. DMEM/F12 containing 10% fetal bovine serum (FBS) was used as a culture medium and geneticin (Gibco®, Thermo Fisher Scientific) was added to stabilize the cells.
24 hours later, after washing the 96-well plate once with a 20 mM HEPES Hanks' balanced salt solution (HBSS) buffer (hereinafter, referred to as a reaction buffer, Invitrogen®, Thermo Fisher Scientific), a membrane potential fluorescence dye (FLIPR®, Molecular Devices) was added to the human Nav1.7-HEK293 cells. […] After reaction for 10 minutes, the change in membrane potential depending on treatment with 30 μM veratridine as a stimulant was measured for each well for 55 seconds using a fluorescence plate reader (FlexStation3, Molecular Device, USA).
The inhibition rate was calculated in the same manner also for lidocaine (Sigma) which is used as a local anesthetic and itch-relieving agent.

T1 sequence (Q15858 whole entry): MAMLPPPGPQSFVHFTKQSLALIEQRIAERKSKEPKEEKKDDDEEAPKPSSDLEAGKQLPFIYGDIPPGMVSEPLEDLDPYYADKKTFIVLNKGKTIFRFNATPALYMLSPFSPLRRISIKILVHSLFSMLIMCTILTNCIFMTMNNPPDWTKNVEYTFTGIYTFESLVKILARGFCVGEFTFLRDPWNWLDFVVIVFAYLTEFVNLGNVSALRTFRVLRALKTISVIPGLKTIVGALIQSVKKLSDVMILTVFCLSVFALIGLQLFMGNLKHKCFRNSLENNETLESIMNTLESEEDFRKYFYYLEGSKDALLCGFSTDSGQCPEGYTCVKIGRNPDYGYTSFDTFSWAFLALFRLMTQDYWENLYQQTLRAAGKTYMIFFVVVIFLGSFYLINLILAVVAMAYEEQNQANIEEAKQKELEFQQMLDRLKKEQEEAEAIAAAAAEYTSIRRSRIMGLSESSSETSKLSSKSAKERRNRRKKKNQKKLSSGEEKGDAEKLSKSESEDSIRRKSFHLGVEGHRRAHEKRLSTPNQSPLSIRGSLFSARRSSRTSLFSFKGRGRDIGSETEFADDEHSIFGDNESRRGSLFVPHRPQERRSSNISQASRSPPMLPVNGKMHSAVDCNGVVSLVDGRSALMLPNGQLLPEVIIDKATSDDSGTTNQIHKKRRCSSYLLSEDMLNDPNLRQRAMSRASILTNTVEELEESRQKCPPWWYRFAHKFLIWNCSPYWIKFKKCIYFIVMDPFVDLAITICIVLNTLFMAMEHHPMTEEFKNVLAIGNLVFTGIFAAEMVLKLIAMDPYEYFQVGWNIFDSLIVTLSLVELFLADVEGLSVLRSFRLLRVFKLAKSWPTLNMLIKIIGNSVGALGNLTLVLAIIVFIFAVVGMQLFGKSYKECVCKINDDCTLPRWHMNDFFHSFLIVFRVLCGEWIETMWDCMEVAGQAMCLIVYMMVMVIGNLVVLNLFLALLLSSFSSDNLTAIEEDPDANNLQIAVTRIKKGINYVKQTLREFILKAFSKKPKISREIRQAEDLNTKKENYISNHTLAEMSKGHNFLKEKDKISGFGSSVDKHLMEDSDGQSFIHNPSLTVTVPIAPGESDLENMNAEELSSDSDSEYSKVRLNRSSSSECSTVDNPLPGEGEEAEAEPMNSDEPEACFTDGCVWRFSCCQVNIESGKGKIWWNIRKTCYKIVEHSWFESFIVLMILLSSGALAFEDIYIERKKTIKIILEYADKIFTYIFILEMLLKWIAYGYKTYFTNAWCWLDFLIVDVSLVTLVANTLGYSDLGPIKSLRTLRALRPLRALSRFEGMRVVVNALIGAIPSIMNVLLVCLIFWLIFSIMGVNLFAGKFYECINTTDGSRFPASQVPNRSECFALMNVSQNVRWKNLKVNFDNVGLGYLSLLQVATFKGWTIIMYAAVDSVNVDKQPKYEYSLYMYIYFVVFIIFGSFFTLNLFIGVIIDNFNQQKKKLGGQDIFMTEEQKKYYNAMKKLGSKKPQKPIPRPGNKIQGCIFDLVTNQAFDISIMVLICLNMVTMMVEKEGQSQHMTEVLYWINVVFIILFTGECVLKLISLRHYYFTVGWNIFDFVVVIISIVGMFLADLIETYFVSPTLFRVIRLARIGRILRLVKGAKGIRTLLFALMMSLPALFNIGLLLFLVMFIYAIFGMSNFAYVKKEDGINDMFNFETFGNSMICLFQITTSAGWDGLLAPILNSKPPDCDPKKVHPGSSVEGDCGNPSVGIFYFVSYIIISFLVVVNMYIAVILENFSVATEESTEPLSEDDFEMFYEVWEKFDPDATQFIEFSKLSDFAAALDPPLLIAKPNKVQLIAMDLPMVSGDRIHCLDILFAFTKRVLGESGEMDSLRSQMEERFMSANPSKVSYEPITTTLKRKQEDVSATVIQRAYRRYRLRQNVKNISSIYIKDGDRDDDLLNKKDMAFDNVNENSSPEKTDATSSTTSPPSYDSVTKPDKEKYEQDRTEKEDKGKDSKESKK

CCN(CC)CC(=O)Nc1c(C)cccc1C [Lidocaine, lidocaine] showed a pIC50 of 4.54.
